Our source for the IC50, melting point and inhibition in vivo values is patent publication US6525059B1, “Substituted pyrazoles as p38 kinase inhibitors” (G. D. Searle & Company, priority 1998, dated 2003).

The target of series [1] is T1, human GST-p38 kinase alpha (Homo sapiens, UniProt Q16539).
T1 construct: The coding region of the human p38a cDNA was obtained by PCR-amplification from RNA isolated from the human monocyte cell line THP.1; made in house; host or cells: E. coli DH10B
The series can be described thus: p38 kinase in vitro assay, second format, phosphorylation of EGFRP with 33P-ATP. Type of series: biochemical. The conditions noted are these: Table 10, 10% DMSO; @ 1.0 hour; read-out: p38α Kinase Assay IC50. The essentials:
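Activated human GST-p38α (pre-activated with GST-MKK6, 1 h, 30 °C) phosphorylates EGFR 21-mer peptide (200 μM) with 50 μM ATP plus γ-33P-ATP, pH 7.5, 60 min at room temperature. Unreacted ATP removed by AG 1×8 resin; supernatant scintillation-counted.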

Series [2] concerns TNF-α. As to the kind of experiment: Rat assay: LPS-challenged rats, serum TNF-α by ELISA. The conditions noted are these: Rattus norvegicus, po; for inhibition in vivo at 5 mg/kg: Table 10, dose 5.0 mg/kg, read-out: Rat LPS Assay % Inhibition; for inhibition in vivo at 20 mg/kg: Table 10, dose 20.0 mg/kg. Type of series: in vivo.
Series [3] relates to TNF-α. The series can be described thus: LPS stimulation of TNF production by U937 cells. Type of series: cell-based, human. The settings on record: Homo sapiens, U-937, LPS-stimulated U937 cells; read-out: U937 Cell Assay IC50. Put shortly: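 PMA-differentiated human U937 cells (20 ng/ml PMA, 24 h, then 24-48 h rest) at 2 million cells/ml, 0.1% DMSO final, stimulated with E. coli LPS (100 ng/ml final) for 4 h at 37° C. TNF-α in medium measured by ELISA; IC50 in μM.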

Series [4] deals with T2, human p38 kinase alpha (Homo sapiens, UniProt Q16539).
T2 construct: The coding region of the human p38a cDNA was obtained by PCR-amplification from RNA isolated from the human monocyte cell line THP.1; GST (N); made in house; host or cells: E. coli DH10B
The series can be described thus: p38 kinase in vitro assay, phosphorylation of biotinylated PHAS-I with gamma 32P-ATP. Type of series: biochemical. The conditions noted are these: activated human p38 kinase alpha, PHAS-I substrate, 50 μM unlabeled ATP; read-out: p38 kinase IC50. The essentials:
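MKK6-activated human p38α phosphorylates biotinylated PHAS-I with γ-32P-ATP in 25 mM HEPES pH 7.5, 10 mM Mg acetate, 50 μM unlabeled ATP, 1% DMSO, 30 °C for 1 h or overnight. Compounds at 100–0.001 μM (10-fold steps, triplicate); substrate captured on streptavidin filter plates and counted by scintillation.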

T1 sequence (Q16539 whole entry): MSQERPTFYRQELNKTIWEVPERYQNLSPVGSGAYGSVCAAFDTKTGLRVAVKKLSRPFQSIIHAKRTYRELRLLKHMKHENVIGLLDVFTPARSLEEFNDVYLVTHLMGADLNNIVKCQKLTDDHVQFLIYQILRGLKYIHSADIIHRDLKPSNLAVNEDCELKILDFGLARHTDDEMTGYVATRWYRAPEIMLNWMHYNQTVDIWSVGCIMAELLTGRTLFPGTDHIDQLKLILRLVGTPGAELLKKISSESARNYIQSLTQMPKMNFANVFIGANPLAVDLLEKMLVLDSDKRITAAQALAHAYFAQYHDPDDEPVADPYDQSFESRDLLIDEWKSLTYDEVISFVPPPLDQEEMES
T2 sequence (Q16539 whole entry): as above

As for `CC(C#N)Sc1[nH]nc(-c2ccc(Cl)cc2)c1-c1ccncc1` (stereo not drawn) [Example A-477], the melting point (as a rule, the temperature, or range, at which the solid turns liquid) is 211.1 to 212.8 °C. Moreover, in series [1], the IC50 (commonly the concentration at which inhibition is half-maximal) was 0.34 µM.

Compound `COc1ccc(CSC(SCc2ccc(OC)cc2)=C(C(=O)c2ccc(F)cc2)c2ccncc2)cc1` [Example A-450] returned a melting point of 118.5 to 120.6 °C. Also, the IC50 in series [1] was greater than 100 µM.

As for `Clc1ccc(-c2n[nH]c(SCc3nc4ccccc4[nH]3)c2-c2ccncc2)cc1` [Example A-470], the melting point amounted to 257.7 °C. In series [1], the IC50 came out at 10.4 µM.

The compound `Cc1ccc(-c2n[nH]c(N3CCN(C)CC3)c2-c2ccncc2)cc1C` [Example A-410, 1-[5-(3,4-dimethylphenyl)-4-(4-pyridinyl)-1H-pyrazol-3-yl]-4-methylpiperazine] gave a melting point of 270.9 to 272.7 °C. The half-inhibitory concentration (IC50) in series [1] worked out at 0.21 µM. Moreover, in series [2], the inhibition in vivo at 5 mg/kg came to 11% and the inhibition in vivo at 20 mg/kg amounted to 0%.

In turn, `Fc1ccc(-c2n[nH]c(S)c2-c2ccncc2)cc1` [Example A-454] had a melting point of 261.3 to 263.9 °C. Also, the IC50 in series [1] was 8.41 µM.

For the compound `C=Cc1ccc(-c2[nH]nc(N3CCN(C)CC3)c2-c2ccncc2)cc1` [Example A-418, 1-[5-(4-ethenylphenyl)-4-(4-pyridinyl)-1H-pyrazol-3-yl]-4-methylpiperazine], the melting point was greater than 300 °C. In addition, the half-inhibitory concentration (IC50) in series [1] amounted to 0.12 µM.

In the case of `Fc1ccc(-c2[nH]nc(Nc3ccccc3)c2-c2ccncc2)cc1` [Example A-20, 5-(4-Fluorophenyl)-N-phenyl-4-(4-pyridinyl)-1H-pyrazol-3-amine], the melting point lay in the range of 218 to 219 °C. The IC50 in series [3] amounted to 1090 nM.

Compound `CCc1ccc(-c2[nH]nc(N3CCN(C)CC3)c2-c2ccncc2)cc1` [Example A-419, 1-[5-(4-ethylphenyl)-4-(4-pyridinyl)-1H-pyrazol-3-yl]-4-methylpiperazine] registered a melting point of 221.6 to 222.6 °C. Also, the 50% inhibitory concentration (IC50) in series [1] amounted to 1.31 µM. The inhibition in vivo at 5 mg/kg in series [2] was 24%. Further, in series [2] (Table 10, dose 10.0 mg/kg), the inhibition in vivo at 10 mg/kg came out at 58%.

Take `O=C(C(=C1SCS1)c1ccncc1)c1cccc(Br)c1` [Example A-393]: the melting point was 159.6 to 159.7 °C. For the same compound, the IC50 in series [1] was determined as 2.32 µM.

For `Cc1cccc(-c2n[nH]c(N3CCN(C)CC3)c2-c2ccncc2)c1` [A-389, Step 4], the melting point fell in the range of 261.9 to 262 °C. For the same compound, the IC50 in series [1] stood at 0.16 µM. Further, in series [2], the inhibition in vivo at 5 mg/kg amounted to 55% and the inhibition in vivo at 20 mg/kg stood at 94%.

For `COc1ccc(C(=O)C(=C2SCS2)c2ccncc2)cc1Cl` [Example A-397], the melting point is 191.5 to 192.5 °C. In series [1], the IC50 stood at 30 µM.

On to `COc1ccc(C(=O)C(=C2SCS2)c2ccncc2)cc1` [Example A-399], for which the melting point lay within 203 to 204.1 °C. The concentration for half-maximal inhibition (IC50) in series [1] stood at 22.9 µM.

`COc1ccc(C[S+]([O-])c2[nH]nc(-c3ccc(F)cc3)c2-c2ccncc2)cc1` (stereo not drawn) [Example A-466] returned a melting point of 189.5 °C. In addition, the IC50 in series [1] turned out to be 20.1 µM.

Compound `COc1ccc(CS(=O)(=O)c2[nH]nc(-c3ccc(F)cc3)c2-c2ccncc2)cc1` [Example A-467] gave a melting point of 241.9 to 242 °C. Moreover, the IC50 in series [1] came to 21.4 µM.

Take `O=C(O)CNc1[nH]nc(-c2ccc(Cl)cc2)c1-c1ccncc1.[Li+]` [Example A-430]: the melting point was greater than 300 °C. In addition, in series [1], the IC50 is greater than 100 µM.

As to `CSc1[nH]nc(-c2ccc(F)cc2)c1-c1ccncc1` [Example A-434], the melting point was 249.9 °C. For the same compound, the IC50 in series [1] was 5.84 µM.

`Fc1ccc(-c2[nH]nc(-c3ccccc3)c2-c2ccncc2)cc1` [Example A-21, 4-[5-(4-fluorophenyl)-3-phenyl-1H-pyrazol-4-yl]pyridine]: the melting point fell in the range of 265 to 267 °C. Also, the half-maximal inhibitory concentration (IC50) in series [3] amounted to 77 nM.

Compound `COc1ccc(COc2[nH]nc(-c3ccc(Cl)cc3)c2-c2ccncc2)cc1` [Example A-444] displayed a melting point of 229.1 to 229.2 °C. Also, the IC50 in series [1] is 6.99 µM.

Turning to `Fc1ccc(-c2n[nH]c(-c3ccncc3)c2-c2ccncc2)cc1` [Example A-23, 4-[3-(4-fluorophenyl)-4-(4-pyridinyl)-1H-pyrazol-5-yl]pyridine], the melting point was found to be 304 °C. Further, the concentration for half-maximal inhibition (IC50) in series [4] was found to be 1500 nM.

In turn, `Cc1ccccc1C(=O)C(=C1SCS1)c1ccncc1` [Example A-392] showed a melting point of 126.5 to 126.6 °C. Also, the IC50 in series [1] worked out at 29.7 µM.

With `CC(C)(C)OC(=O)N1CCC([S+]([O-])c2[nH]nc(-c3ccc(Cl)cc3)c2-c2ccncc2)CC1` (stereo not drawn) [Example A-464], the melting point was 215.8 to 215.9 °C. Besides, the IC50 in series [1] is greater than 100 µM.

For `CN(C)c1ccc(C(=O)C(=C2SCS2)c2ccncc2)cc1` [Example A-402], the melting point fell in the range of 197.3 to 202.2 °C. The half-maximal inhibitory concentration (IC50) in series [1] was determined as 28.9 µM.

`CC(C)(C)OC(=O)N1CCC(S(=O)(=O)c2[nH]nc(-c3ccc(Cl)cc3)c2-c2ccncc2)CC1` [Example A-465]: the melting point is 228 to 230.8 °C. Also, the half-inhibitory concentration (IC50) in series [1] was greater than 100 µM.

`COC(=O)CNc1[nH]nc(-c2ccc(Cl)cc2)c1-c1ccncc1` [Example A-429] had a melting point of 195.4 to 196.8 °C. Moreover, in series [1], the half-maximal inhibitory concentration (IC50) came to 56.3 µM.

For `CC(=O)n1ccc(-c2c(-c3ccncc3)c(-c3ccc(F)cc3)nn2CCO)cc1=O` [Example A-195, 1-acetyl-4-[3-(4-fluorophenyl)-1-(2-hydroxyethyl)-4-(4-pyridinyl)-1H-pyrazol-5-yl]-2(1H)-pyridinone], the melting point is 220 to 221 °C.

In turn, `OCCn1nc(-c2ccc(F)cc2)c(-c2ccncc2)c1C1CC1` [Example A-192, 5-cyclopropyl-3-(4-fluorophenyl)-4-(4-pyridinyl)-1H-pyrazole-1-ethanol] registered a melting point of 155 to 157 °C.

For the compound `CN1CCN(c2n[nH]c(-c3cccs3)c2-c2ccncc2)CC1` [Example A-426], the melting point was 199.7 °C (dec.).

Turning to `Fc1ccc(-c2n[nH]cc2-c2ccnc(Cl)n2)cc1` [Example A-299, 2-Chloro-4-[3-(4-fluorophenyl)-1H-pyrazol-4-yl]pyrimidine], the melting point lay within 204 to 205 °C.

As for `CN1CCC(N(C)c2[nH]nc(-c3ccc(Cl)cc3)c2-c2ccncc2)CC1` (hydrate or solvate), the melting point lay within 260 to 261 °C.

The compound `CNc1nccc(-c2c[nH]nc2-c2ccc(F)cc2)n1` [Example A-302, 4-[3-(4-fluorophenyl)-1H-pyrazol-4-yl]-N-methyl-2-pyrimidinamine] gave a melting point of 217 to 218 °C.

`Clc1cccc(-c2n[nH]cc2-c2ccnc(NCCc3ccccc3)c2)c1` [Example A-221, 4-[3-(3-chlorophenyl)-1H-pyrazol-4-yl]-N-(phenylethyl)-2-pyridinamine] displayed a melting point of 185 to 186 °C.

In turn, `COC(=O)N1CCN(c2[nH]nc(-c3ccc(Cl)cc3)c2-c2ccncc2)CC1` (hydrate or solvate) [Example A-319, methyl 4-[5-(4-chlorophenyl)-4-(4-pyridinyl)-1H-pyrazol-3-yl]-1-piperazinecarboxylate, monohydrate] returned a melting point of 264 to 265 °C.

For `Cc1ccc(C(=O)C(=C2SCS2)c2ccncc2)cc1C` [Example A-394], the melting point was in the range of 198.8 to 198.9 °C. For the same compound, in series [1], the IC50 is 9.11 µM.

For the compound `CN1CCN(c2[nH]nc(-c3ccc(F)cc3)c2-c2ccncc2)CC1` (hydrate or solvate) [Example A-317, 1-[5-(4-fluorophenyl)-4-(4-pyridinyl)-1H-pyrazol-3-yl]-4-methylpiperazine, dihydrate], the melting point lay in the range of 262 to 264 °C.

Regarding `O=C(O)C1CC1c1c(-c2ccncc2)c(-c2ccc(F)cc2)nn1CCO` (stereo not drawn) [Example A-197, 2-[3-(4-fluorophenyl)-1-(2-hydroxyethyl)-4-(4-pyridinyl)-1H-pyrazol-5-yl]cyclopropanecarboxylic acid], the melting point was 253 to 255 °C.

In turn, `CN(C)c1nccc(-c2cn[nH]c2-c2ccc(F)cc2)n1` [Example A-301, 4-[3-(4-fluorophenyl)-1H-pyrazol-4-yl]-N,N-dimethyl-2-pyrimidinamine] displayed a melting point of 155 to 156 °C.

As to `Sc1[nH]nc(-c2ccc(Cl)cc2)c1-c1ccncc1` [Example A-453], the melting point lay in the range of 266.3 to 268.9 °C. Also, the IC50 in series [1] was 10.2 µM.
